Test results published in US8653091B2, “Pyrid-2yl fused heterocyclic compounds, and compositions and uses thereof” (Evotec AG, priority 2007, dated 2014).

Experiments:
P2X2/3 = P2X2/3 (Homo sapiens (Human), UniProt P56373+Q9UBL9); experiment: Calcium uptake assay (P2X antagonist assay), P2X2/3; format: cell-based; conditions: inhibition of agonist-induced calcium influx
Text: (§1) Human P2X3 (Accession no. NM_002559), P2X2 (Accession no. NM_170682) and Rat P2X3 (Accession no. NM_031075) and P2X2 (Accession no. NM_053656) are cloned into a mammalian expression vector (e.g., pcDNA5/TO or pcDNA3 Invitrogen). The human P2X2/3 chimera clone is created as described by Neelands et al, and then cloned into an expression vector as above. Receptors are expressed in cells (e.g., HEK293 or 1321N1 (obtained from the ECACC)) via transient transfection using standard lipid mediated transfection, or by creation of stable transfectants for each receptor. For expression of the P2X2/3 heteromeric receptor, the P2X3 expression vector is stably transfected into a cell line already stably expressing P2X2. P2X2/3 heteromer function is isolated using pharmacological methods. Cell lines are maintained in DMEM+5% Glutamax, the appropriate level of selective antibiotic, and 10% heat inactivated FBS.
(§2) Functional activity of compounds at the P2X receptor is determined by measuring their ability to inhibit agonist-induced calcium influx. Compounds are tested for antagonist activity against the P2X2/3 chimera, the P2X3 homomer, or the P2X2/3 heteromer. At the start of each screening day, the agonist EC50 is determined. Compound % inhibition or IC50s are subsequently determined using a pre-determined agonist concentration (EC50-90 depending on cell line) as a stimulus. The agonists used are αβMeATP, ATP, or other ATP analogs. Compounds may be tested at concentrations ranging from 1 μM to 10 μM.
(§3) To test for antagonist activity, cells expressing the appropriate receptor are seeded onto 96 or 384 well plates 18-24 hours prior to assay. On the day of the assay, cells are loaded with calcium-sensitive fluorescent dye (e.g., Fluo-4 no wash reagent-Invitrogen cat#F36206, or the BD™ PBX Calcium Assay Kit—BD cat#640175) in Hank's Buffered Salt Solution (HESS) with up to 10 mM supplemental CaCl2. Plates are incubated at 37° C. and then equilibrated at room temperature. Antagonism of agonist-induced calcium influx is measured using a fluorescent imaging plate reader (e.g. FLIPR^TETRA, Molecular Devices, Sunnyvale, Calif.). The assay comprises two stages: a pre-treatment phase followed by a treatment phase. Compounds may be tested as follows: For the pre-treatment phase, 50 μL of 3× concentration of test compound in HBSS is added to cells containing 100 μL of dye loading media to achieve a final concentration of 1× test compound. For the treatment phase, at a set interval after pre-treatment (1-30 minutes), 50 μL of 1× test compound plus […] solution is added, resulting in a final concentration of 1× compound and 1× agonist. Fluorescence is measured at 0.1-3 second intervals—with an excitation wavelength of 494 nm and an emission wavelength of 515 nm. Responses are measured as (peak fluorescence after agonist addition) minus (baseline fluorescence prior to treatment). Percent inhibition is calculated as follows: […]
(§4) IC50 values are determined by analyzing dose response data in a 4 parameter logistic fit using GraphPad Prizm.

P2X3 = P2X3 (Homo sapiens (Human), UniProt P56373); experiment: Calcium uptake assay (P2X antagonist assay), P2X3; format: cell-based; conditions: inhibition of agonist-induced calcium influx
Chain of P2X3 (P56373 whole entry): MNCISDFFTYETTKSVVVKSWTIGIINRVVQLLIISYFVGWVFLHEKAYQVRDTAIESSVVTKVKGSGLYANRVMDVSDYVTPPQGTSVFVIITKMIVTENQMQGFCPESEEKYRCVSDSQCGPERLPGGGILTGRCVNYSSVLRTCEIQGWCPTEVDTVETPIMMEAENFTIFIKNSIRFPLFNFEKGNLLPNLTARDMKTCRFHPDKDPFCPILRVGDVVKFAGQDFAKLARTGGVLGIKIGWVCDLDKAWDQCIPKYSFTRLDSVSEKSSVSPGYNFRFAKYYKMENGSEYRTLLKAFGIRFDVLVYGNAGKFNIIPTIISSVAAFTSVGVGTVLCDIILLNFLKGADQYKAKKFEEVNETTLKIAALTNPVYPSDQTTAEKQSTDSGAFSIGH
Text: as §1, §2, §3, §4

Chain of P2X2/3 (Q9UBL9 whole entry): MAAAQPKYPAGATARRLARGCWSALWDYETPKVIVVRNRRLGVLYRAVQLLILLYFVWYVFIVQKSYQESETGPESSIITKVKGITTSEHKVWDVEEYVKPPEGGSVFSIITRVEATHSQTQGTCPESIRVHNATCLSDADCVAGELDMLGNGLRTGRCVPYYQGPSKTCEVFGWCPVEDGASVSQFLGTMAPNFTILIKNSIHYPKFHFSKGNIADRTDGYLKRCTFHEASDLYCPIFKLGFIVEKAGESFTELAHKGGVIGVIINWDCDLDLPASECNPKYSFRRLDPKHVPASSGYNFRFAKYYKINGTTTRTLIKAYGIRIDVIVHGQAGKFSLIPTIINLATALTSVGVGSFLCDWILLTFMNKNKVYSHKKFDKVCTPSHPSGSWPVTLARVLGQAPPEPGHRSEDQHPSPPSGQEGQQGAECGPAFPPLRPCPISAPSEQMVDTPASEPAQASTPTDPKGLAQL
Chain of P2X2/3 (P56373 whole entry): as the sequence (P56373 whole entry) above

IC50 (P2X2/3) [µM] | IC50 (P2X3) [µM] | Compound
3.97 | 0.123 | Cc1ccc(N2CCc3ncnc(NC(C)c4ccccn4)c3C2)nc1 (stereo not drawn) [Compound 10, [6-(5-Methyl-pyridin-2-yl)-5,6,7,8-tetrahydro-pyrido[4,3-d]pyrimidin-4-yl]-(1-pyridin-2-yl-ethyl)-amine]
– | > 7.2 | Cc1ccc(N2CCc3ncnc(N[C@@H](C)c4ccc(Cl)cc4)c3C2)nc1 [Compound 6, [(S)-1-(4-Chloro-phenyl)-ethyl]-[6-(5-methyl-pyridin-2-yl)-5,6,7,8-tetrahydro-pyrido[4,3-d]pyrimidin-4-yl]-amine]
– | 0.181 | COc1ccc([C@@H](C)Nc2ncnc3c2CN(c2ccc(C)cn2)CC3)cc1 [Compound 43, [(R)-1-(4-Methoxy-phenyl)-ethyl]-[6-(5-methyl-pyridin-2-yl)-5,6,7,8-tetrahydro-pyrido[4,3-d]pyrimidin-4-yl]-amine]
2.74 | 0.063 | Cc1ccc(N2CCc3ncnc(NC(C)c4cccnc4)c3C2)nc1 (stereo not drawn) [Compound 11, [6-(5-Methyl-pyridin-2-yl)-5,6,7,8-tetrahydro-pyrido[4,3-d]pyrimidin-4-yl]-(1-pyridin-3-yl-ethyl)-amine]
– | > 10 | C[C@H](Nc1ncnc2c1CN(c1ccc(Cl)cn1)CC2)c1ccc(C(F)(F)F)nc1 [Compound 51, (S)-6-(5-Chloropyridin-2-yl)-N-(1-(6-(trifluoromethyl)pyridin-3-yl)ethyl)-5,6,7,8-tetrahydropyrido[4,3-d]pyrimidin-4-amine]
– | 0.415 | Cc1ccc(N2CCc3ncnc(NC(C)c4ccc(Cl)cc4Cl)c3C2)nc1 (stereo not drawn) [Compound 27, [1-(2,4-Dichloro-phenyl)-ethyl]-[6-(5-methyl-pyridin-2-yl)-5,6,7,8-tetrahydro-pyrido[4,3-d]pyrimidin-4-yl]-amine]
– | 0.033 | C[C@@H](Nc1ncnc2c1CN(c1ccc(Cl)cn1)CC2)c1ccc(C(F)(F)F)nc1 [Compound 52, [6-(5-Chloro-pyridin-2-yl)-5,6,7,8-tetrahydro-pyrido[4,3-d]pyrimidin-4-yl]-[(R)-1-(6-trifluoromethyl-pyridin-3-yl)-ethyl]-amine]
2.43 | 0.056 | Cc1ccc(N2CCc3ncnc(NC(C)c4cccc(F)c4)c3C2)nc1 (stereo not drawn) [Compound 2, [1-(3-Fluoro-phenyl)-ethyl]-[6-(5-methyl-pyridin-2-yl)-5,6,7,8-tetrahydro-pyrido[4,3-d]pyrimidin-4-yl]-amine]
3.09 | 0.272 | Cc1ccc(N2CCc3ncnc(NC(CO)c4cccnc4)c3C2)nc1 (stereo not drawn) [Compound 62, 2-[6-(5-Methyl-pyridin-2-yl)-5,6,7,8-tetrahydro-pyrido[4,3-d]pyrimidin-4-ylamino]-2-pyridin-3-yl-ethanol]
– | 0.301 | Cc1ccc(N2CCc3ncnc(NC(C)c4cccc(C(F)(F)F)c4)c3C2)nc1 (stereo not drawn) [Compound 4, [6-(5-Methyl-pyridin-2-yl)-5,6,7,8-tetrahydro-pyrido[4,3-d]pyrimidin-4-yl]-[1-(3-trifluoromethyl-phenyl)-ethyl]-amine]
– | 0.245 | Cc1ccc(N2CCc3ncnc(NC(C)c4ccc(C(F)(F)F)cc4)c3C2)nc1 (stereo not drawn) [Compound 26, [6-(5-Methyl-pyridin-2-yl)-5,6,7,8-tetrahydro-pyrido[4,3-d]pyrimidin-4-yl]-[1-(4-trifluoromethyl-phenyl)-ethyl]-amine]
– | 0.603 | CCc1ccc(C(C)Nc2ncnc3c2CN(c2ccc(C)cn2)CC3)cc1 (stereo not drawn) [Compound 13, [1-(4-Ethyl-phenyl)-ethyl]-[6-(5-methyl-pyridin-2-yl)-5,6,7,8-tetrahydro-pyrido[4,3-d]pyrimidin-4-yl]-amine]
1.42 | 0.043 | Cc1ccc(N2CCc3ncnc(NC(C)c4ccc(Cl)c(F)c4)c3C2)nc1 (stereo not drawn) [Compound 39, [1-(4-Chloro-3-fluoro-phenyl)-ethyl]-[6-(5-methyl-pyridin-2-yl)-5,6,7,8-tetrahydro-pyrido[4,3-d]pyrimidin-4-yl]-amine]
– | 0.125 | Cc1ccc(N2CCc3ncnc(NC(C)c4ccccc4Cl)c3C2)nc1 (stereo not drawn) [Compound 15, [1-(2-Chloro-phenyl)-ethyl]-[6-(5-methyl-pyridin-2-yl)-5,6,7,8-tetrahydro-pyrido[4,3-d]pyrimidin-4-yl]-amine]
– | 0.344 | C[C@@H](Nc1ncnc2c1CN(c1ccc(Cl)cn1)CC2)c1ccc(Cl)cc1 [Compound 40, [(R)-1-(4-Chloro-phenyl)-ethyl]-[6-(5-chloro-pyridin-2-yl)-5,6,7,8-tetrahydro-pyrido[4,3-d]pyrimidin-4-yl]-amine]
1.91 | 0.048 | Cc1ccc(N2CCc3ncnc(N[C@H](C)c4ccc(Cl)cc4)c3C2)nc1 [Compound 7, [(R)-1-(4-Chloro-phenyl)-ethyl]-[6-(5-methyl-pyridin-2-yl)-5,6,7,8-tetrahydro-pyrido[4,3-d]pyrimidin-4-yl]-amine]
– | 0.137 | COc1ccccc1C(C)Nc1ncnc2c1CN(c1ccc(C)cn1)CC2 (stereo not drawn) [Compound 14, [1-(2-Methoxy-phenyl)-ethyl]-[6-(5-methyl-pyridin-2-yl)-5,6,7,8-tetrahydro-pyrido[4,3-d]pyrimidin-4-yl]-amine]
– | 0.408 | CC[C@@H](Nc1ncnc2c1CN(c1ccc(C)cn1)CC2)c1ccccc1 [Compound 42]
– | 0.212 | Cc1ccc(N2CCc3ncnc(NC(C)c4ccc(Br)cc4)c3C2)nc1 (stereo not drawn) [Compound 28, [1-(4-Bromo-phenyl)-ethyl]-[6-(5-methyl-pyridin-2-yl)-5,6,7,8-tetrahydro-pyrido[4,3-d]pyrimidin-4-yl]-amine]
– | 0.161 | Cc1ccc(N2CCc3ncnc(N[C@H](CO)c4ccccc4)c3C2)nc1 [Compound 37, (S)-2-[6-(5-Methyl-pyridin-2-yl)-5,6,7,8-tetrahydro-pyrido[4,3-d]pyrimidin-4-ylamino]-2-phenyl-ethanol]
– | 0.119 | Cc1ccc(N2CCc3ncnc(NC(C)c4cccc(Cl)c4)c3C2)nc1 (stereo not drawn) [Compound 16, [1-(3-Chloro-phenyl)-ethyl]-[6-(5-methyl-pyridin-2-yl)-5,6,7,8-tetrahydro-pyrido[4,3-d]pyrimidin-4-yl]-amine]
– | > 10 | CC[C@H](Nc1ncnc2c1CN(c1ccc(C)cn1)CC2)c1ccccc1 [Compound 45, [6-(5-Methyl-pyridin-2-yl)-5,6,7,8-tetrahydro-pyrido[4,3-d]pyrimidin-4-yl]-((S)-1-phenyl-propyl)-amine]
– | 0.397 | CCC(Nc1ncnc2c1CN(c1ccc(C)cn1)CC2)c1ccccc1 (stereo not drawn) [Compound 36, [6-(5-Methyl-pyridin-2-yl)-5,6,7,8-tetrahydro-pyrido[4,3-d]pyrimidin-4-yl]-(1-phenyl-propyl)-amine]
– | 3.56 | FC(F)(F)c1ccc([C@H](Nc2ncnc3c2CN(c2ccc(Cl)cn2)CC3)C2CC2)cn1 [Compound 53, [6-(5-Chloro-pyridin-2-yl)-5,6,7,8-tetrahydro-pyrido[4,3-d]pyrimidin-4-yl]-[(R)-cyclopropyl-(6-trifluoromethyl-pyridin-3-yl)-methyl]-amine]
> 10 | – | FC(F)(F)c1ccc([C@@H](Nc2ncnc3c2CN(c2ccc(Cl)cn2)CC3)C2CC2)cn1 [Compound 54, [6-(5-Chloro-pyridin-2-yl)-5,6,7,8-tetrahydro-pyrido[4,3-d]pyrimidin-4-yl]-[(S)-cyclopropyl-(6-trifluoromethyl-pyridin-3-yl)-methyl]-amine]
– | 0.212 | Cc1ccc(N2CCc3ncnc(NC(C)c4ccncc4)c3C2)nc1 (stereo not drawn) [Compound 9, [6-(5-Methyl-pyridin-2-yl)-5,6,7,8-tetrahydro-pyrido[4,3-d]pyrimidin-4-yl]-(1-pyridin-4-yl-ethyl)-amine]

Compound | IC50 (P2X2/3) [µM] | IC50 (P2X3) [µM]
Cc1ccc(N2CCc3ncnc(N[C@H](C)c4cnc(C)nc4)c3C2)nc1 [Compound 64, [6-(5-Methyl-pyridin-2-yl)-5,6,7,8-tetrahydro-pyrido[4,3-d]pyrimidin-4-yl]-[(R)-1-(2-methyl-pyrimidin-5-yl)-ethyl]-amine] | 0.26 | 0.017
COc1ccc([C@@H](CO)Nc2ncnc3c2CN(c2ccc(C)cn2)CC3)cn1 [Compound 60, (S)-2-(6-Methoxy-pyridin-3-yl)-2-[6-(5-methyl-pyridin-2-yl)-5,6,7,8-tetrahydro-pyrido[4,3-d]pyrimidin-4-ylamino]-ethanol] | 0.097 | 0.027
